Source: patent US11925646B2, “Agent for treating or preventing cancer, and combination of RF pathway inhibitor and MEK inhibitor for treating or preventing cancer” (NATIONAL UNIVERSITY CORPORATION HOKKAIDO UNIVERSITY, priority 2021, dated 2024)

Legend:
4-hit flies (non-GFP) = assay: Survival rate of 4-hit flies raised on agent diet; format: in vivo, Drosophila; conditions: in diet: 0.5 μM trametinib, 50 μM roseoflavin; raised at 25° C. for 13 days
Description: Roseoflavin and trametinib were dissolved in DMSO (Sigma) to be stored at −20° C.
Agar (Wako), brewers' yeast (MPBio), yeast extract (Sigma Aldrich), Bacto Casitone (BD), sucrose (Wako), glucose (Wako), MgCl2 (Wako), CaCl2) (Wako), propionic acid (Wako), Mold Inhibitor (10% methyl-4-hydroxy benzoate in 95% ethanol: Wako) were dissolved in ultrapure water to produce a standard diet. While this was being warmed at 50° C., an agent (trametinib alone, or a combination of roseoflavin and trametinib) dissolved in DMSO was added thereto to be mixed, and the resultant was cooled to prepare an agent diet. Final concentrations in the diet of the respective compounds were set to 0.5 μM for trametinib, and 50 μM for roseoflavin.
The UAS-RasG12D, UAS-p53 shRNA, UAS-CycE, UAS-Med shRNA fly produced in Example 1 was crossbred with a Ser-gal4 fly (Bloomington Drosophila Stock Center), and the parent flies were caused to lay eggs for 2 days on the standard diet or the agent diet, and thus, 20 to 50 eggs per vial, of Ser-gal4; UAS-RasG12D, UAS-p53 shRNA, UAS-CycE, UAS-Med shRNA 4-hit flies (non-GFP) were obtained. These eggs were raised at 25° C. for 13 days, and survival rate of the 4-hit flies (non-GFP) raised on each diet was calculated by dividing the number of eclosed individuals by the total number of pupae.

RF pathway = assay: Liquid chromatography mass spectrometry of RoF, RF, FMN and FAD within the cells; format: cell-based, human; conditions: MIAPaCa-2, PANC-1 and Capan-1; 10 μM RoF, 48 hours; vs DMSO control
AsPC-1 = assay: Spheroid formation in three-dimensional methylcellulose culture; format: cell-based, human; conditions: 10 μM RoF, 1 nM Tr, day 21 of culture
Description: (§1) The pancreatic cancer cell lines (AsPC-1 and Capan-1) having 4-hit mutation were three-dimensionally cultured in methylcellulose-containing media.
(§2) In a 24 well plate (upper layer: 1.8% methylcellulose, lower layer: 0.48% agarose), AsPC-1 was seeded at 5×10^3 cells/well (in 100 μL of the medium). After culturing for 1 day (day 1), DMSO (control), 10 μM roseoflavin (RoF), 1 nM trametinib (Tr), or 10 μM RoF+1 nM Tr was respectively added to the 24 well plate (final concentration of DMSO: 0.1%). After adding the agent solution, the resultant was cultured in the presence of 5% CO2 at 37° C., and a culture fluid was added on day 14. The resultant was further cultured, and each group was photographed on day 21 to measure the size and the number of spheroids. It is noted that the following media were used for culturing the respective cell lines: • AsPC-1: RPMI 1640 medium (Nakalai Tesque) supplemented with 10% fetal bovine serum (Gibco) and 1% penicillin-streptomycin (Nakalai Tesque) • Capan-1: IMDM medium (Iscove's Modified Dulbecco's Medium) (Nakalai Tesque) supplemented with 20% fetal bovine serum (Gibco) and 1% penicillin-streptomycin (Nakalai Tesque)

Capan-1 [1] = assay: as above; format: cell-based, human; conditions: 10 μM RoF, 1 nM Tr, day 21 of culture
Description: as §1, §2

MIAPaCa-2 = assay: MTS assay, relative survival rate with roseoflavin; format: cell-based, human; conditions: RoF 0.1 to 10 μM, 24, 48 or 72 hours, ratio to solvent control at 72 hours
Description: (§3) Human pancreatic cancer cells were treated with roseoflavin (RoF), and a relative survival rate was calculated assuming that mitochondrial respiratory chain activity corresponded to the survival rate.
(§4) Human pancreatic cancer cell lines, MIAPaCa-2, PANC-1, and Capan-1 were used for performing MTS assay with RoF. All the cell lines were obtained from ATCC. Each of the cell lines was cultured with the following medium in the presence of 5% CO2 at 37° C. • MIAPaCa-2: Dulbecco's Modified Eagle's Medium (Nakalai Tesque) supplemented with 10% fetal bovine serum (Gibco) and 1% penicillin-streptomycin (Nakalai Tesque) • PANC-1: RPMI 1640 medium (Nakalai Tesque) supplemented with 10% fetal bovine serum (Gibco) and 1% penicillin-streptomycin (Nakalai Tesque) • Capan-1: IMDM medium (Iscove's Modified Dulbecco's Medium) (Nakalai Tesque) supplemented with 20% fetal bovine serum (Gibco) and 1% penicillin-streptomycin (Nakalai Tesque)
(§5) Roseoflavin (RoF) was prepared to 0 μM (DMSO alone), 0.1 mM, 0.3 mM, 1 mM, 3 mM, and 10 mM, and the resultants were respectively diluted with the medium by 1000 times to obtain agent solutions (RoF final concentration: 0 μM, 0.1 μM, 0.3 μM, 1 μM, 3 μM and […]).
(§6) In a 96 well plate, MIAPaCa-2 was seeded at 500 cells/well, PANC-1 was seeded at 2,000 cells/well, and Capan-1 was seeded at 10,000 cells/well (in 100 μL of the medium). After these were cultured for 1 day, the RoF agent solution at each concentration was added to the cells in the 96 well plate in an amount of 10 μL each (final concentration of DMSO: 0.1%). Each combination was tested in 3 wells. After the addition of the agent solution, the resultant was cultured in the presence of 5% CO2 at 37° C. for 24, 48 or 72 hours, and a cell survival rate was measured with MTS Assay (Cell Titer 96®, Promega). The survival rate was expressed as a ratio to that of the control (solvent alone) cultured for 72 hours.

Capan-1 [2] = assay: MTS assay, relative survival rate with roseoflavin; format: cell-based, human; conditions: RoF 0.1 to 10 μM, 24, 48 or 72 hours, ratio to solvent control at 72 hours
Description: as §3, §4, §5, §6

PANC-1 = assay: MTS assay, relative survival rate with roseoflavin; format: cell-based, human; conditions: RoF 0.1 to 10 μM, 24, 48 or 72 hours, ratio to solvent control at 72 hours
Description: as §3, §4, §5, §6

Row | SMILES | improvement of survival rate of 4-hit flies (eclosed individuals / total pupae) (4-hit flies (non-GFP)) | amount of FAD (flavin adenine dinucleotide) within the cells (RF pathway) | amount of FMN (flavin mononucleotide) within the cells (RF pathway) | amount of RF (riboflavin) within the cells (RF pathway) | spheroid formation, spheroids of 0.1 to 0.2 mm and larger than 0.2 mm (AsPC-1) | number of spheroids of 0.1 mm or smaller (Capan-1 [1]) | spheroid formation, spheroids of 0.1 to 0.2 mm and larger than 0.2 mm (Capan-1 [1]) | relative survival rate (mitochondrial respiratory chain activity) (MIAPaCa-2) | relative survival rate (mitochondrial respiratory chain activity) (Capan-1 [2]) | relative survival rate (mitochondrial respiratory chain activity) (PANC-1)
1 | CC(=O)Nc1cccc(-n2c(=O)n(C3CC3)c(=O)c3c(Nc4ccc(I)cc4F)n(C)c(=O)c(C)c32)c1 [trametinib] | about 10% |  |  |  |  |  |  |  |  | 
2 | Cc1cc2nc3c(=O)[nH]c(=O)nc-3n(C[C@H](O)[C@H](O)[C@H](O)CO)c2cc1N(C)C [roseoflavin] |  | smaller than those in the control | smaller than those in the control | smaller than those in the control | spheroid formation was suppressed | increased | spheroid formation was suppressed | deteriorated mitochondrial respiratory chain activity in a dose dependent manner to decrease the relative survival rate | deteriorated mitochondrial respiratory chain activity in a dose dependent manner to decrease the relative survival rate | deteriorated mitochondrial respiratory chain activity in a dose dependent manner to decrease the relative survival rate
